Assay results published in PubChem BioAssay AID2305 (GlaxoSmithKline (GSK), 2010).
Where “and” joins values, the source holds several entries; their conditions need not be identical. Equal entries are not always repeated.

The molecules below were run on P. falciparum 3D7 growth, pLDH absorbance (assay: P. falciparum 3D7 growth inhibition, dose response, strain 3D7 (AID 2305)).
For Nc1ncc(-c2cccc(CCN3CCOCC3)c2)cc1-c1nc2ccc(Br)cc2[nH]1, the IC50 was 280 nM.
For COc1cc(OC)cc(C(=O)N2CCOC(CCN3CCC(c4ccccc4)CC3)(c3ccc(Cl)c(Cl)c3)C2)c1 (configuration not stated), the IC50 was 440 nM.
In the case of CCC(=O)NC(c1ccco1)c1cc(Cl)c2cccnc2c1O (configuration not stated), the IC50 is reported as 870 nM.
Molecule CC1CN(c2ccc(NC(=O)c3ccc(F)cc3)cc2)CCN1Cc1cccc(F)c1 (configuration not stated) has an IC50 of 1350 nM.
COC(=O)c1cccc(CNCc2ccc(-c3cccc(-c4nc5c(C)cccc5[nH]4)c3)cc2)c1 gave an IC50 of 310 nM.
For COc1ccc2ncc(F)c(CCN3C[C@H](CNCc4nc5c(cc4Cl)OCC(=O)N5)[C@H](O)C3)c2n1, the IC50 was 950 nM and 1280 nM and 830 nM.
Cc1ccc(Cn2ncc(N3CCCNCC3)c(Cl)c2=O)cc1NC(=O)Nc1ccc(-c2ccccc2)cc1 gave an IC50 of 630 nM.
Cc1cccc2[nH]c(=O)c([N+](=O)[O-])c(O)c12 was tested, and the IC50 was 910 nM.
COc1c(C(=O)NC2CCN(Cc3ccccc3)C2)cnc2ccccc12 (configuration not stated) showed an IC50 of 960 nM.
For Cc1cc(N[C@@H](Cc2ccccc2)C(=O)NC2CCCC2)nc(NCc2ccccc2C)n1, the IC50 was 1230 nM.
For CN(C)C(C)(C)CN(Cc1ccc(-c2ccc(C(F)(F)F)cc2)cc1)C(=O)Cn1c(CCc2cccc(F)c2F)nc(=O)c2ccccc21, the IC50 was 830 nM.
O=C(NC(=O)c1ccccc1O)c1ccccc1O gave an IC50 of 700 nM.
In the case of CCOC(=O)C(C#N)NC(=O)C=Cc1ccccc1 (configuration not stated), the IC50 is reported as 800 nM.
CCN(CC)S(=O)(=O)n1ncc2c3c(N)nc(N)nc3ccc21 showed an IC50 of 50 nM.
In the case of Cc1c(CNCCCNc2nc3ccccc3[nH]2)sc(C(F)F)c1Br, the IC50 is reported as 290 nM.
For N#Cc1ccc(-c2ccc3nc(N4CCCN(C5CCC5)CC4)ccc3c2)cc1, the IC50 was 1500 nM.
CCn1cnc2c(N3CCCCS3(=O)=O)cc(C(=O)N[C@@H](Cc3ccccc3)[C@H](O)CNC3CCOCC3)cc21 was tested, and the IC50 was 710 nM.
CN1CCN(CCCN(Cc2csc(-c3ccc(CNCc4ccccc4)cc3)n2)S(=O)(=O)c2cccc3cccnc23)CC1 showed an IC50 of 1410 nM.
COc1cc2c(C3CCN(CC4CCN(C(=O)/C=C/c5ccc(Cl)c(Cl)c5)CC4)CC3)c[nH]c2cn1 gave an IC50 of 730 nM.
In the case of Cc1cnc(N2CCN(CC3CCN(C)CC3)CC2)nc1Oc1ccc(-n2ccnc2)cc1, the IC50 is reported as 720 nM.
CN(CCCCNC(=O)c1cc2ccccc2[nH]1)C1CC2(CCN(C(=O)OC(C)(C)C)CC2)c2ccccc21 (configuration not stated) showed an IC50 of 930 nM.
COc1cc(Nc2nccc(NCC(O)c3ccc(C(F)(F)F)cc3)n2)cc(OC)c1OC (configuration not stated) showed an IC50 of 920 nM.
In the case of CCN(CC)CCCC(C)Nc1c(-c2ccc(OC)cc2)cnc2ccccc12 (configuration not stated), the IC50 is reported as 890 nM.
With CC(C)N1CCN(CCCNc2c3ccccc3nc3ccccc23)CC1 the IC50 was 230 nM.
For COc1ccc(-n2ccnc2SCC(=O)Nc2cc(Cl)ccc2OC)c(OC)c1, the IC50 was 730 nM.
For CCOC(=O)C(C)(C)Oc1ccc(C(=C2CC(C)(C)CC(C)(C)C2)c2ccc(O)cc2)cc1, the IC50 was 1130 nM.
For N#Cc1cccc(CN(Cc2ccc(Cl)c(Cl)c2)S(=O)(=O)c2cccc([N+](=O)[O-])c2)c1, the IC50 was 810 nM.
COc1cc(CCNc2nc(NCc3ccccc3-c3ccccc3)nc(N3CCC(N)CC3)n2)ccc1O gave an IC50 of 820 nM.
CN(C)c1nc(NCc2ccccc2)nc(NN=Cc2cc([N+](=O)[O-])ccc2O)n1 was tested, and the IC50 was 690 nM.
O=c1cc(NCc2ccccc2NCc2ccc(Cl)c(Cl)c2)[nH]c2ccccc12 gave an IC50 of 840 nM.
NC(N)=NC(=O)Nc1cc(Cl)c(Br)c(Cl)c1 was tested, and the IC50 was 470 nM.
In the case of CCCN(CCC)C(=O)c1cc(C(=O)N[C@@H](Cc2ccccc2)[C@H](O)CNCc2cccc(C(F)(F)F)c2)cc(N2CCCCS2(=O)=O)c1, the IC50 is reported as 880 nM.
In the case of COc1ccc2nccc([C@@H](O)CN3CCC(NC(=O)c4cccc(-c5cc(C)no5)c4)CC3)c2c1, the IC50 is reported as 340 nM.
For O=C(Nc1ccc(Cn2ncc(N3CCCNCC3)c(Cl)c2=O)cc1)Nc1ccc(OCc2ccccc2)cc1, the IC50 was 820 nM.
Molecule CC1(C)[C@H]2C=C(CN3CCC(NC(=O)Nc4ccc(Cl)c(Cl)c4)CC3)[C@@H]1CC2 has an IC50 of 760 nM.
O=C(NCCCCN1CCC(c2ccc3ccccc3c2O)CC1)c1ccc(NC(=O)c2ccc(Cl)cc2)cc1 showed an IC50 of 1010 nM.
With O=C(Nc1cc(C(F)(F)F)ccc1N1CCOCC1)C(Cl)(Cl)Cl the IC50 was 370 nM.
For NCc1ccc(CNCc2cccc(-c3ccc(-c4nc5ccccc5[nH]4)cc3)c2)cc1, the IC50 was 720 nM.
In the case of O=C(Nc1cc(Cl)ccc1O)c1cnn2c(C(F)(F)F)cc(-c3cccs3)nc12, the IC50 is reported as 860 nM.
Molecule O=C(NCC1COc2ccccc2O1)c1cnc2c(c1)nc(-c1cnc(-c3ccccc3)[nH]1)n2CCSCc1c(F)cccc1Cl (configuration not stated) has an IC50 of 960 nM.
CCN(CC)CCCC(C)Nc1ccnc2[nH]c3ccccc3c12 (configuration not stated) was tested, and the IC50 was 1770 nM.
COc1ccc(C(=O)CCC(=O)N(Cc2ccc(-c3ccc(CNCCc4ccc(S(C)(=O)=O)cc4)cn3)cc2)C2C[C@@H]3CC[C@H]2C3)cc1F (some centres not stated) was tested, and the IC50 was 930 nM.
Work on CCCc1cc(Cc2cnc(N)nc2N)cc(CCC)c1OC yielded an IC50 of 890 nM.
With COc1ccccc1CCNc1nccc(N[C@@H](Cc2ccccc2)C(=O)NCc2cccs2)n1 the IC50 was 870 nM.
In the case of Cc1nc(-c2nc(NCc3ccncc3)ncc2-c2ccsc2)sc1C, the IC50 is reported as 990 nM.
In the case of O=C(NCCc1ccccc1F)c1cc(Br)cc(N2CCN(c3ccncc3)CC2)c1, the IC50 is reported as 760 nM.
For CCc1c(C(=O)NC2CCC(N3CCC(c4ccccc4C)CC3)CC2)[nH]c2ccc(Br)cc12 (configuration not stated), the IC50 was 930 nM.
Work on CC(=O)Nc1ncc(C(=O)Nc2cccc(-c3cccc(-c4nc5ccc(F)cc5[nH]4)c3)c2)s1 yielded an IC50 of 450 nM.
For O=C(/C=C/c1cccc(F)c1)NC1CCC(CN2CCC(c3c[nH]c4ccccc34)CC2)CC1 (configuration not stated), the IC50 was 870 nM and 710 nM.
Work on CNC(=O)CSc1nnc(-c2ccc(C)cc2)c(-c2ccc(C)cc2)n1 yielded an IC50 of 600 nM.
O=C(N[C@@H](CC1CCCCC1)C(=O)NCCc1ccc(Cl)c(Cl)c1)c1ccc(O)c(-c2ccc(Cl)c(Cl)c2)c1 showed an IC50 of 160 nM.
Molecule CCOc1c(OC)ccc2c1CCN(CCN1CCC(CNC(=O)c3ccc(-c4ccc(C#N)cc4)cc3)CC1)C2 has an IC50 of 1080 nM.
For COc1ccc(CC(C)NCC(O)c2cccc(Cl)c2)cc1C (configuration not stated), the IC50 was 900 nM.
With O=C(Cn1c(CCc2cccc(F)c2F)cc(=O)c2ccccc21)N(CCN1CCCC1)Cc1ccc(-c2ccc(C(F)(F)F)cc2)cc1 the IC50 was 860 nM.
For CCCCCC(C)C(C)c1cc(OC(N)=O)c2c(c1)OC(C)(C)C=C2c1ccncc1 (configuration not stated), the IC50 was 900 nM.
OC(CNC1CCCCC1)c1ccc(Cl)c(Cl)c1 (configuration not stated) was tested, and the IC50 was 700 nM.
For Cc1ccc(C)c(NC(=O)NCCNc2ccnc(Nc3ccc(F)cc3)n2)c1, the IC50 was 820 nM.
In the case of O=C(Cc1cccc2ccccc12)NC1CCN(c2ccnc3cc(Cl)ccc23)C1 (configuration not stated), the IC50 is reported as 250 nM.
COc1cc(NC(=O)N2CCc3ccc(OCCN(C(C)C)C(C)C)cc32)cc(C(F)(F)F)c1 gave an IC50 of 190 nM.
CCNc1cc(C(=O)N[C@@H](Cc2ccccc2)[C@H](O)CNC(C)(C)Cc2cccc(OC)c2)cc(N2CCCC2=O)c1 gave an IC50 of 710 nM.
In the case of COC(=O)c1cc(C(=O)CN(Cc2ccccc2)C(C)C)ccc1O, the IC50 is reported as 180 nM.
Molecule Cc1c(C)n(C2CCCC2)c2ncnc(OC3CCN(CC(=O)NC4CC4)CC3)c12 has an IC50 of 790 nM.
With O=C(NCCN1CCC(c2ncc(-c3ccccc3)o2)CC1)c1ccc(NC(=O)c2ccc(Cl)cc2)cc1 the IC50 was 240 nM.
CC(=O)N(C)c1cccc(C(=O)Nc2cccc(-c3cccc(-c4nc5ccc(C(F)(F)F)cc5[nH]4)c3)c2)c1 was tested, and the IC50 was 240 nM.
COC(=O)CNC(c1ccccc1)c1cc(Br)ccc1NC(=O)c1ccccc1Br (configuration not stated) showed an IC50 of 990 nM.
In the case of CC(C)c1ccc(NC(=O)NCC2CCCN(CCCCCNC(=O)/C=C/c3ccc(Cl)c(Cl)c3)C2)cc1 (configuration not stated), the IC50 is reported as 810 nM.
For CC(C)NCc1ccc(OCc2cccc(COc3ccc(CNC(C)C)cc3I)c2)c(I)c1, the IC50 was 90 nM.
CCc1nc(N)nc(N)c1-c1cccc(Cl)c1 showed an IC50 of 190 nM.
Work on COc1ccc2nc(C)cc(Nc3ccc(Cl)cc3)c2c1 yielded an IC50 of 950 nM.
COc1cc2c(cc1NS(=O)(=O)c1ccc(OCc3ccc(Br)cc3)cc1)CCN(C1CCC1)CC2 gave an IC50 of 840 nM.
CCCC(CNCc1ccc(Cl)c(C(F)(F)F)c1)CNc1nc2ccncc2[nH]1 (configuration not stated) was tested, and the IC50 was 290 nM.
CCN(CC)CCNc1ccnc2[nH]c3ccc([N+](=O)[O-])cc3c12 was tested, and the IC50 was 200 nM.
With CN1CCCC(CN2CCN(Cc3cccc(-c4cccc(-c5nc6ccccc6[nH]5)c4)c3)CC2)C1 (configuration not stated) the IC50 was 140 nM.
CCc1ccc(CN2CCC(CNC(=O)c3cc(-c4ccccc4F)cs3)C2)cc1 (configuration not stated) showed an IC50 of 900 nM.
With O=C(NC1CCN(Cc2ccc3c(c2)OCCO3)CC1)c1ccc(-c2cccc(Cl)c2)s1 the IC50 was 1910 nM.
In the case of c1ccc2c(c1)CN(Cc1cc3ccccc3[nH]1)CC1(CCN(Cc3c[nH]c4cnccc34)CC1)O2, the IC50 is reported as 310 nM.
O=C(NCC1CCC(C(=O)NCc2cccc(C(F)(F)F)c2)CC1)c1ccc(O)c(-c2ccc(Cl)c(Cl)c2)c1 (configuration not stated) gave an IC50 of 710 nM.
Work on Cc1cc(N(C)C)nc(Nc2ccc(NC(=O)COc3ccccc3)cc2)n1 yielded an IC50 of 1760 nM.
COC(=O)c1cccc(CNCc2ccc(-c3ccc(-c4nc5ccc(F)cc5[nH]4)cc3)cc2)c1 showed an IC50 of 240 nM.
CCCCN(CCCC)Cc1cc2ccccc2cc1O gave an IC50 of 350 nM.
In the case of CC1CCCN1Cc1ccc(-c2ccc3c(=O)cc(CCc4cccc(F)c4F)n(CC(=O)N(C)Cc4ccc(-c5ccc(C(F)(F)F)cc5)cc4)c3n2)cc1 (configuration not stated), the IC50 is reported as 820 nM.
Molecule CCCCn1c(Sc2ccc(C#N)c([N+](=O)[O-])c2)nnc1-c1cccc(Cl)c1 has an IC50 of 760 nM.
COc1ccc(NC(=O)[C@H](Cc2ccccc2)Nc2cc(C)nc(NCCc3ccccc3)n2)cc1 was tested, and the IC50 was 1240 nM.
Work on Nc1nc(N)c2c(ccc3c2ccn3CC2CC2)n1 yielded an IC50 of 210 nM.
COc1cc(Nc2nccc(N3CCC(NC(=O)c4cccc(NC(C)=O)c4)C3)n2)cc(OC)c1OC (configuration not stated) was tested, and the IC50 was 830 nM.
In the case of COc1ccccc1C1CCN(C2CCC(NC(=O)/C=C/c3cccc(Cl)c3)CC2)CC1 (configuration not stated), the IC50 is reported as 1030 nM.
CC(C(=O)N1CCCC1)N1CCN(C(c2ccccc2)c2ccccc2)CC1 (configuration not stated) was tested, and the IC50 was 1100 nM.
CN1CCCN(c2ccnc3cc4c(cc23)N(C(=O)c2ccc(Cl)c(Cl)c2)CC4)CC1 showed an IC50 of 870 nM.
For c1ccc2c(Nc3ccc(OCCOCCOc4ccc(Nc5c6ccccc6nc6ccccc56)cc4)cc3)c3ccccc3nc2c1, the IC50 was 280 nM.
CCN(CCCN1CCCCC1)c1cc(C)nc(Nc2ccc3c(c2)CCC3)n1 was tested, and the IC50 was 390 nM.
For CC(O)C1CCCCN1C(=O)c1cccc(-c2cccc(-c3nc4ccc(C(F)(F)F)cc4[nH]3)c2)c1 (configuration not stated), the IC50 was 280 nM.
For CCOC(=O)c1cnc2c(C(F)(F)F)cccc2c1Nc1ccc(O)cc1, the IC50 was 630 nM.
CCC1CCCCN1S(=O)(=O)c1ccc(NC(=O)c2cc(C)on2)cc1 (configuration not stated) showed an IC50 of 1240 nM.
In the case of Cn1c(=O)n(C)c2cc(CNCCNc3ccnc4cc(Cl)ccc34)ccc21, the IC50 is reported as 140 nM.
In the case of COc1ccc(NC(=O)Nc2cccc(-c3cccc(-c4nc5ccccc5[nH]4)c3)c2)cc1, the IC50 is reported as 310 nM.
For O=C(N1CCN(c2ccnc3cc4c(cc23)N(Cc2ccccc2)CC4)CC1)C(F)(F)F, the IC50 was 260 nM.
In the case of CCCCc1ccc(NC(=O)Nc2ccc3c(c2)CCNCC3)cc1, the IC50 is reported as 580 nM.
